Earlier results in patent US9155308B2, “Agricultural pesticide formulation” (priority 2013, dated 2015).

Conditions: based on animal studies

SMILES: Cc1c(COC(=O)[C@@H]2[C@H](/C=C(\Cl)C(F)(F)F)C2(C)C)cccc1-c1ccccc1 (racemic) [bifenthrin, Bifenthrin]
- chronic reference dose (RfD) (daily exposure): 0.013 mg/kg bodyweight/day
- acute reference dose (RfD) (one-time exposure): 0.328 mg/kg bodyweight/day
